Assays:
[1] = Selectivity index, ratio of CC50 for HOG.R5 cells to IC50 for HIV1 3B; format: functional
[2] = system: Human immunodeficiency virus 1; assay: Antiviral activity against HIV1 3B infected in human HOG.R5 assessed as inhibition of viral replication by microtiter assay; format: functional, organism-based; details: Human immunodeficiency virus 1, 3B
[3] = Cytotoxicity against human HOG.R5 cells; format: cell-based
[4] = Cytotoxicity against human HOG.R5 cells at 20 ug/ml; format: cell-based
[5] = system: Human immunodeficiency virus 1; assay: Antiviral activity against HIV1 3B infected in human HOG.R5 assessed as inhibition of viral replication at 2.5 ug/ml by microtiter assay; format: functional; details: Human immunodeficiency virus 1, 3B
[6] = system: Human immunodeficiency virus 1; assay: Antiviral activity against HIV1 3B infected in human HOG.R5 assessed as inhibition of viral replication at 20 ug/ml by microtiter assay; format: functional; details: Human immunodeficiency virus 1, 3B

Compound | Ratio CC50/IC50 [1] | IC50 [2] | CC50 [3] | Activity [4] | inhibition at 2.5 µg/mL [5] | inhibition at 20 µg/mL [6]
C=C(C/C=C/C(C)(C)O)[C@H]1CC[C@]2(C)[C@@H]1CC[C@@H]1[C@@]3(C)CC[C@H](O)C(C)(C)[C@@H]3CC[C@]12C | 1.3 | 22.6 µM | 30.3 µM |  |  | 
C/C(=C\CC[C@@H](C)[C@H]1CC[C@@]2(C)C3=C(CC[C@]12C)[C@@]1(C)CCC(=O)C(C)(C)[C@@H]1CC3)C(=O)O | 1.7 | 8.6 µM | 14.8 µM |  |  | 
C=C(CC[C@H](O)C(=C)C)[C@H]1CC[C@]2(C)[C@@H]1CC[C@@H]1[C@@]3(C)CC[C@H](O)C(C)(C)[C@@H]3CC[C@]12C | 2.3 | 6.1 µM | 14.3 µM |  |  | 
CC1=C2[C@@H]3[C@H](CC[C@H](C)[C@]2(O)CC1=O)C3(C)C | >1 | 88 µM | 85.5 µM | Non-toxic |  | 
CC(=O)/C=C/C[C@@H](C)[C@H]1CC[C@@]2(C)[C@@H]3CC[C@H]4C(C)(C)[C@@H](O)CC[C@@]45C[C@@]35CC[C@]12C |  | 5.9 µM | 12.7 µM |  | 21% | 
C=C(C)[C@@H]1CC[C@]2(C(=O)O)CC[C@]3(C)[C@H](CC[C@@H]4[C@@]5(C)CC[C@H](O)C(C)(C)[C@@H]5CC[C@]43C)[C@@H]12 [BETULINIC ACID] | 1.1 | 32.5 µM | 36 µM |  |  | 
C=C(C)[C@@H]1CC[C@]2(CO)CC[C@]3(C)[C@H](CC[C@@H]4[C@@]5(C)CC[C@H](O)C(C)(C)[C@@H]5CC[C@]43C)[C@@H]12 [BETULIN] | 1.4 | 13.8 µM | 19.5 µM |  |  | 
C=C(C)[C@@H]1CC[C@]2(C(=O)O)CC[C@]3(C)[C@H](CC[C@@H]4[C@@]5(C)CCC(=O)C(C)(C)[C@@H]5CC[C@]43C)[C@@H]12 [BETUNOLIC ACID] |  | 21.4 µM | 105 µM |  |  | 
CC(CCC[C@@H](C)[C@H]1CC[C@@]2(C)[C@@H]3CC[C@H]4C(C)(C)C(=O)CC[C@@]45C[C@@]35CC[C@]12C)C(=O)O (stereo partly specified) [DIHYDROSCHIZANDRONIC ACID] |  | 43.9 µM | 43.9 µM | Non-toxic |  | 0%
CC1(C)CC[C@]2(CO)CC[C@]3(C)C(=CC[C@@H]4[C@@]5(C)CC[C@H](O)C(C)(C)[C@@H]5CC[C@]43C)[C@@H]2C1 [ERYTHRODIOL] | >1 | 45.2 µM | 45.2 µM | Non-toxic |  | 33%
C/C(=C\CC[C@@H](C)[C@H]1CC[C@@]2(C)[C@@H]3CC[C@H]4C(C)(C)C(=O)CC[C@@]45C[C@@]35CC[C@]12C)C(=O)O [MANGIFERONIC ACID] |  | 44.1 µM | 44.1 µM | Non-toxic |  | 19%
C=Cc1c(C)c2cc3nc(c4c5[nH]c(cc6nc(cc1[nH]2)C(C)=C6CC)c(C)c5C(=O)[C@@H]4C(=O)OC)[C@@H](CCC(=O)O)[C@@H]3C [PHEOPHORBIDE A] | >13 | 2.5 µM | 33.8 µM |  |  | 
C[C@H]1[C@H](C)CC[C@]2(C(=O)O)CC[C@]3(C)C(=CC[C@@H]4[C@@]5(C)CC[C@H](O)C(C)(C)[C@@H]5CC[C@]43C)[C@H]12 [URSOLIC ACID] | 4.9 | 14.7 µM | 15.8 µM |  |  | 
CC(=O)/C=C/C[C@@H](C)[C@H]1CC[C@@]2(C)[C@@H]3CC[C@H]4C(C)(C)C(=O)CC[C@@]45C[C@@]35CC[C@]12C [VATICINONE] | 1.4 | 15.3 µM | 21.5 µM |  |  | 

— ChEMBL document CHEMBL1159344, “Natural anti-HIV agents. Part IV. Anti-HIV constituents from Vatica cinerea” (J Nat Prod, 2003)
